Data published in patent US20230143596A1, “PESTICIDALLY ACTIVE DIAZINE-BISAMIDE COMPOUNDS” (SYNGENTA CROP PROTECTION AG, priority 2020, published 2023).

Legend:
[1] = system: Diabrotica balteata; experiment: Example B1: Diabrotica balteata (corn root worm), maize sprouts sprayed; format: in vivo; settings: 96 h, application rate 200 ppm, L2 larvae, 4 days after infestation, vs untreated, read-out: control in at least one of the two categories (mortality or growth inhibition)
Procedure: Example B1: Diabrotica balteata (Corn Root Worm)
Maize sprouts placed onto an agar layer in 24-well microtiter plates were treated with aqueous test solutions prepared from 10′000 ppm DMSO stock solutions by spraying. After drying, the plates were infested with L2 larvae (6 to 10 per well). The samples were assessed for mortality and growth inhibition in comparison to untreated samples 4 days after infestation.
(§1) The following compounds gave an effect of at least 80% control in at least one of the two categories (mortality or growth inhibition) at an application rate of 200 ppm: […]

[2] = system: Euschistus heros; experiment: Example B2: Euschistus heros (neotropical brown stink bug), soybean leaves sprayed; format: in vivo; settings: 120 h, application rate 200 ppm, N2 nymphs, 5 days after infestation, vs untreated, read-out: control in at least one of the two categories (mortality or growth inhibition)
Procedure: Example B2: Euschistus heros (Neotropical Brown Stink Bug)
Soybean leaves on agar in 24-well microtiter plates were sprayed with aqueous test solutions prepared from 10′000 ppm DMSO stock solutions. After drying the leaves were infested with N2 nymphs. The samples were assessed for mortality and growth inhibition in comparison to untreated samples 5 days after infestation.
as §1

[3] = system: Chilo suppressalis; experiment: Example B3: Chilo suppressalis (striped rice stemborer), artificial diet; format: in vivo; settings: 144 h, application rate 200 ppm, L2 larvae, 6 days after infestation, vs untreated, read-out: control in at least one of the three categories (mortality, anti-feedant effect, or growth inhibition)
Procedure: Example B3: Chilo suppressalis (Striped Rice Stemborer)
24-well microtiter plates with artificial diet were treated with aqueous test solutions prepared from 10′000 ppm DMSO stock solutions by pipetting. After drying, the plates were infested with L2 larvae (6-8 per well). The samples were assessed for mortality, anti-feeding effect, and growth inhibition in comparison to untreated samples 6 days after infestation. Control of Chilo suppressalis by a test sample is given when at least one of the categories mortality, anti-feedant effect, and growth inhibition is higher than the untreated sample.

[4] = system: Plutella xylostella; experiment: Example B4: Plutella xylostella (diamond back moth), artificial diet; format: in vivo; settings: 192 h, application rate 200 ppm, eggs, 8 days after infestation, vs untreated, read-out: control in at least one of the two categories (mortality or growth inhibition)
Procedure: Example B4: Plutella xylostella (Diamond Back Moth)
24-well microtiter plates with artificial diet were treated with aqueous test solutions prepared from 10′000 ppm DMSO stock solutions by pipetting. After drying, Plutella eggs were pipetted through a plastic stencil onto a gel blotting paper and the plate was closed with it. The samples were assessed for mortality and growth inhibition in comparison to untreated samples 8 days after infestation. The following compounds gave an effect of at least 80% control in at least one of the two categories (mortality or growth inhibition) at an application rate of 200 ppm: […]

[5] = system: Spodoptera littoralis; experiment: Example B6: Spodoptera littoralis (Egyptian cotton leaf worm), cotton leaf discs sprayed; format: in vivo; settings: foliar, 72 h, application rate 200 ppm, L1 larvae, 3 days after infestation, vs untreated, read-out: control in at least one of the three categories (mortality, anti-feedant effect, or growth inhibition)
Procedure: Example B6: Spodoptera littoralis (Egyptian Cotton Leaf Worm)
Cotton leaf discs were placed onto agar in 24-well microtiter plates and sprayed with aqueous test solutions prepared from 10′000 ppm DMSO stock solutions. After drying the leaf discs were infested with five L1 larvae. The samples were assessed for mortality, anti-feeding effect, and growth inhibition in comparison to untreated samples 3 days after infestation. Control of Spodoptera littoralis by a test sample is given when at least one of the categories mortality, anti-feedant effect, and growth inhibition is higher than the untreated sample.

melting point [°C]	Compound	further results
–	CCNC(=O)c1nccnc1C(C)NC(=O)c1cc(C(F)(F)F)cc(C(F)(F)F)c1 (stereo not shown) [Compound P1, 3-[1-[[3,5-bis(trifluoromethyl)benzoyl]amino]ethyl]-N-ethyl-pyrazine-2-carboxamide]	percent control (mortality or growth inhibition) at 200 ppm [1]: ≥ 80%; percent control (mortality or growth inhibition) at 200 ppm [2]: ≥ 80%; percent control (mortality, anti-feedant effect or growth inhibition) at 200 ppm [3]: ≥ 80%; percent control (mortality or growth inhibition) at 200 ppm [4]: ≥ 80%; percent control (mortality, anti-feedant effect or growth inhibition) at 200 ppm [5]: ≥ 80%
–	CCCCNC(=O)c1nccnc1C(C)NC(=O)c1cc(C(F)(F)F)cc(C(F)(F)F)c1 (stereo not shown) [Compound P3, 3-[1-[[3,5-bis(trifluoromethyl)benzoyl]amino]ethyl]-N-butyl-pyrazine-2-carboxamide]	percent control (mortality, anti-feedant effect or growth inhibition) at 200 ppm [3]: ≥ 80%
–	CC(NC(=O)c1cc(C(F)(F)F)cc(C(F)(F)F)c1)c1nccnc1C(=O)NC1CC1 (stereo not shown) [Compound P5, 3-[1-[[3,5-bis(trifluoromethyl)benzoyl]amino]ethyl]-N-cyclopropyl-pyrazine-2-carboxamide]	percent control (mortality, anti-feedant effect or growth inhibition) at 200 ppm [3]: ≥ 80%; percent control (mortality or growth inhibition) at 200 ppm [4]: ≥ 80%; percent control (mortality, anti-feedant effect or growth inhibition) at 200 ppm [5]: ≥ 80%
–	C=CCNC(=O)c1nccnc1C(C)NC(=O)c1cc(C(F)(F)F)cc(C(F)(F)F)c1 (stereo not shown) [Compound P6, N-allyl-3-[1-[[3,5-bis(trifluoromethyl)benzoyl]amino]ethyl]pyrazine-2-carboxamide]	percent control (mortality, anti-feedant effect or growth inhibition) at 200 ppm [3]: ≥ 80%; percent control (mortality or growth inhibition) at 200 ppm [4]: ≥ 80%
127	CCCNC(=O)c1nccnc1C(C)NC(=O)c1cc(C(F)(F)F)cc(C(F)(F)F)c1 (stereo not shown) [P.2, 3-[1-[[3,5-bis(trifluoromethyl)benzoyl]amino]ethyl]-N-propyl-pyrazine-2-carboxamide]	–
128	COCCNC(=O)c1nccnc1C(C)NC(=O)c1cc(C(F)(F)F)cc(C(F)(F)F)c1 (stereo not shown) [P.4, 3-[1-[[3,5-bis(trifluoromethyl)benzoyl]amino]ethyl]-N-(2-methoxyethyl)pyrazine-2-carboxamide]	–
201	CC(NC(=O)c1cc(C(F)(F)F)cc(C(F)(F)F)c1)c1nccnc1C(=O)Nc1ncccn1 (stereo not shown) [P.7, 3-[1-[[3,5-bis(trifluoromethyl)benzoyl]amino]ethyl]-N-pyrimidin-2-yl-pyrazine-2-carboxamide]	–
136	CCNC(=O)c1nccnc1C(C)NC(=O)c1cc(OCC(F)(F)F)cc(C(F)(F)F)c1 (stereo not shown) [P.8, N-ethyl-3-[1-[[3-(2,2,2-trifluoroethoxy)-5-(trifluoromethyl)benzoyl]amino]ethyl]pyrazine-2-carboxamide]	–
134	CCNC(=O)c1nccnc1C(C)NC(=O)c1cc(OCC(F)F)cc(C(F)(F)F)c1 (stereo not shown) [P.9, 3-[1-[[3-(2,2-difluoroethoxy)-5-(trifluoromethyl)benzoyl]amino]ethyl]-N-ethyl-pyrazine-2-carboxamide]	–
215	CC(NC(=O)c1cc(C(F)(F)F)cc(C(F)(F)F)c1)c1nccnc1C(=O)Nc1ccc(C#N)cn1 (stereo not shown) [P.10, 3-[1-[[3,5-bis(trifluoromethyl)benzoyl]amino]ethyl]-N-(5-cyano-2-pyridyl)pyrazine-2-carboxamide]	–
193	CC(NC(=O)c1cc(C(F)(F)F)cc(C(F)(F)F)c1)c1nccnc1C(=O)NCC#N (stereo not shown) [P.11, 3-[1-[[3,5-bis(trifluoromethyl)benzoyl]amino]ethyl]-N-(cyanomethyl)pyrazine-2-carboxamide]	–
241	CC(NC(=O)c1cc(C(F)(F)F)cc(C(F)(F)F)c1)c1nccnc1C(=O)Nc1ccc(C#N)cc1 (stereo not shown) [P.12, 3-[1-[[3,5-bis(trifluoromethyl)benzoyl]amino]ethyl]-N-(4-cyanophenyl)pyrazine-2-carboxamide]	–
75	CCN(C)C(=O)c1nccnc1C(C)NC(=O)c1cc(C(F)(F)F)cc(C(F)(F)F)c1 (stereo not shown) [P.13, 3-[1-[[3,5-bis(trifluoromethyl)benzoyl]amino]ethyl]-N-ethyl-N-methyl-pyrazine-2-carboxamide]	–
81	CC(NC(=O)c1cc(C(F)(F)F)cc(C(F)(F)F)c1)c1nccnc1C(=O)N1CCOCC1 (stereo not shown) [P.14, N-[1-[3-(morpholine-4-carbonyl)pyrazin-2-yl]ethyl]-3,5-bis(trifluoromethyl)benzamide]	–
195	CC(NC(=O)c1cc(C(F)(F)F)cc(C(F)(F)F)c1)c1nccnc1C(=O)NC(C)(C)C#N (stereo not shown) [P.15, 3-[1-[[3,5-bis(trifluoromethyl)benzoyl]amino]ethyl]-N-(1-cyano-1-methyl-ethyl)pyrazine-2-carboxamide]	–
123	CC(NC(=O)c1cc(C(F)(F)F)cc(C(F)(F)F)c1)c1nccnc1C(=O)NC1(C#N)CC1 (stereo not shown) [P.16, 3-[1-[[3,5-bis(trifluoromethyl)benzoyl]amino]ethyl]-N-(1-cyanocyclopropyl)pyrazine-2-carboxamide]	–
132	COCC(C)(C)NC(=O)c1nccnc1C(C)NC(=O)c1cc(C(F)(F)F)cc(C(F)(F)F)c1 (stereo not shown) [P.17, 3-[1-[[3,5-bis(trifluoromethyl)benzoyl]amino]ethyl]-N-(2-methoxy-1,1-dimethyl-ethyl)pyrazine-2-carboxamide]	–
127	COCC(C)NC(=O)c1nccnc1C(C)NC(=O)c1cc(C(F)(F)F)cc(C(F)(F)F)c1 (stereo not shown) [P.18, 3-[1-[[3,5-bis(trifluoromethyl)benzoyl]amino]ethyl]-N-(2-methoxy-1-methyl-ethyl)pyrazine-2-carboxamide]	–
164	CNC(=O)c1nccnc1C(C)NC(=O)c1cc(C(F)(F)F)cc(C(F)(F)F)c1 (stereo not shown) [P.19, 3-[1-[[3,5-bis(trifluoromethyl)benzoyl]amino]ethyl]-N-methyl-pyrazine-2-carboxamide]	–
68	CC(NC(=O)c1cc(C(F)(F)F)cc(C(F)(F)F)c1)c1nccnc1C(=O)NC1COC1 (stereo not shown) [P.20, 3-[1-[[3,5-bis(trifluoromethyl)benzoyl]amino]ethyl]-N-(oxetan-3-yl)pyrazine-2-carboxamide]	–
156	CC(NC(=O)c1cc(C(F)(F)F)cc(C(F)(F)F)c1)c1nccnc1C(=O)NCCC#N (stereo not shown) [P.21, 3-[1-[[3,5-bis(trifluoromethyl)benzoyl]amino]ethyl]-N-(2-cyanoethyl) pyrazine-2-carboxamide]	–
